# pIC50: −log10 of the molar value.
# Target: T1, VPS34 (Homo sapiens, UniProt Q8NEB9)
# T1 construct: GST (N); host or cells: SF9 insect cells (baculovirus)
# Assay: Human VPS34 enzyme assay (Adapta TR-FRET)
# Format: biochemical
# Conditions: for inhibition at 1.11 µM: 1 h, at a 1.11 μM concentration, read-out: VPS34 Percent Inhibition
# Experimental: VPS34 (accession number GB:BCO33004) was cloned into pDEST20-Thombin as N-terminal GST tagged fusion proteins using the Gateway system (Invitrogen, catalog#11804-013). The sequences were verified before recombinant protein expression using the Baculovirus Expression System with Gateway® Technology.
# For expression VPS34 was infected at 1MOI in SF9 cells and harvested 72 hours post infection.
# For purification, VPS34 is purified by Glutathione Sepharose 4 Fast Flow (GE Healthcare #17-5132-03) followed by HiTrap Q (GE Healthcare #17-1153-01).
# Human VPS34 Enzyme Assay Method
# 100 nL compounds in DMSO are added to wells of a 384 well microtitre plate (Greiner 780076). At room temperature: 5 ul VPS34 reaction buffer (Invitrogen Assay Buffer Q (diluted 1 in 5 with nanopure water) plus 2 mM DTT and 2 mM MnCl2) containing ATP (20 uM, Promega) and 200 uM PI-PS substrate (Invitrogen PV5122) is added followed immediately by 5 ul VPS34 reaction buffer (as above) containing VPS34 (5 nM, Millennium Protein Sciences Group) and the mixture is incubated with shaking at room temperature for 1 hour. Then 5 ul VPS34 stop-detect mix (as per Invitrogen Adapta Assay kit (PV5009) instructions (contains kinase quench buffer, TR-FRET buffer, Adapta Eu anti-ADP antibody and Alexa Fluor 647 ADP tracer)) is added to quench the reaction. The plates are then incubated for 30 minutes at room temperature with shaking and then read on a BMG PheraStar Plus reader.
# For the assay methods described above, test compound percent inhibition, at various concentrations, is calculated relative to control (DMSO and EDTA) treated samples. Compound concentration versus percent inhibition curves are fitted to generate IC50 values. One skilled in the art will appreciate that the values generated either as percentage inhibition at a single concentration or IC50 values are subject to experimental variation.
# T1 sequence (Q8NEB9 whole entry): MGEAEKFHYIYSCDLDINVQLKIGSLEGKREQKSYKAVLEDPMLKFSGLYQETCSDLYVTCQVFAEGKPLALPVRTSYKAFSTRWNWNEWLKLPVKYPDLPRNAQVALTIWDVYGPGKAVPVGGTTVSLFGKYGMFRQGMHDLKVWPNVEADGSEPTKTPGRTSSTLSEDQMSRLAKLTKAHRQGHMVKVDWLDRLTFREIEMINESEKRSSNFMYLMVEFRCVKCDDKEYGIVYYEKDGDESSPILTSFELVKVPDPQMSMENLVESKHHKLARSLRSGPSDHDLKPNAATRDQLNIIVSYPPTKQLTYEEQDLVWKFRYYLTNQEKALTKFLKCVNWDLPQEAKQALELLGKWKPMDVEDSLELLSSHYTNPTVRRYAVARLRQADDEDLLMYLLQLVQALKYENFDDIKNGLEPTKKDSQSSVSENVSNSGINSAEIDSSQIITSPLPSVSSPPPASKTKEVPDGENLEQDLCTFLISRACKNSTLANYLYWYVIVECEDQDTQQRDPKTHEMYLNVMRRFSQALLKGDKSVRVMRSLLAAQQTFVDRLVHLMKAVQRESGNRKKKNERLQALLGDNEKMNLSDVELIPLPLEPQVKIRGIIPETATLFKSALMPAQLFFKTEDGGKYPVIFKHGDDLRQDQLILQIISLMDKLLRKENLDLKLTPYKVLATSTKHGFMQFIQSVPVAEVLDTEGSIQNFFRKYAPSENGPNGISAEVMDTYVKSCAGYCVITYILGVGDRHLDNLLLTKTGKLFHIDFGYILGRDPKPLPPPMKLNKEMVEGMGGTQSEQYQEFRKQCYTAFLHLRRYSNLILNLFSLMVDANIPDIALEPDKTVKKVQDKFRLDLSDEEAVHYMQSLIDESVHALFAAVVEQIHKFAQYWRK
pIC50,inhibition at 1.11 µM [%],SMILES
> 7.30,> 99,"Cc1cnc(NC(=O)C2CC2)cc1-n1cc(-c2nc[nH]n2)c(-c2cc(CN3CCCC3)ccc2Cl)c1 [I-84, N-(4-{3-[2-chloro-5-(pyrrolidin-1-ylmethyl)phenyl]-4-(1H-1,2,4-triazol-3-yl)-1H-pyrrol-1-yl}-5-methylpyridin-2-yl)cyclopropanecarboxamide]"
–,> 99,"CC(=O)Nc1cc(-n2cc(-c3nc[nH]n3)c(-c3ccccc3C)n2)c(C)cn1 [I-69, N-{5-methyl-4-[3-(2-methylphenyl)-4-(1H-1,2,4-triazol-3-yl)-1H-pyrazol-1-yl]pyridin-2-yl}acetamide]"
> 7.30,> 99,"CC(=O)Nc1cc(-n2cc(-c3nc[nH]n3)c(-c3ccccc3Cl)n2)c(F)cn1 [I-44, N-{4-[3-(2-chlorophenyl)-4-(1H-1,2,4-triazol-3-yl)-1H-pyrazol-1-yl]-5-fluoropyridin-2-yl}acetamide]"
> 7.30,> 99,"CC(=O)Nc1cc(-n2cc(-c3nnc[nH]3)c(-c3ccccc3Cl)c2)ccn1 [I-22, N-{4-[3-(2-chlorophenyl)-4-(1H-1,2,4-triazol-3-yl)-1H-pyrrol-1-yl]pyridin-2-yl}acetamide]"
–,> 99,"Cc1cnc(NC(=O)OCCF)cc1-n1cc(C(N)=O)c(-c2ccccc2Cl)c1 [I-83, 2-fluoroethyl {4-[3-carbamoyl-4-(2-chlorophenyl)-1H-pyrrol-1-yl]-5-methylpyridin-2-yl}carbamate]"
> 7.30,> 99,"CC(=O)Nc1cc(-n2cc(-c3nnc[nH]3)c(-c3ccc(Cl)cc3Cl)n2)c(C)cn1 [I-39, N-{4-[3-(2,4-dichlorophenyl)-4-(4H-1,2,4-triazol-3-yl)-1H-pyrazol-1-yl]-5-methylpyridin-2-yl}acetamide]"
–,> 99,"COCCOC(=O)Nc1cc(-n2cc(C(N)=O)c(-c3ccccc3Cl)c2)c(C)cn1 [I-54, 2-methoxyethyl {4-[3-carbamoyl-4-(2-chlorophenyl)-1H-pyrrol-1-yl]-5-methylpyridin-2-yl}carbamate]"
–,> 99,"COCCC(=O)Nc1cc(-n2cc(C(N)=O)c(-c3ccccc3Cl)c2)c(C)cn1 [I-79, 4-(2-chlorophenyl)-1-{2-[(3-methoxypropanoyl)amino]-5-methylpyridin-4-yl}-1H-pyrrole-3-carboxamide]"
–,> 99,"COC(=O)Nc1cc(-n2cc(-c3nc[nH]n3)c(-c3cc(CN4CCCC4)ccc3Cl)n2)c(C)cn1 [I-61, methyl (4-{3-[2-chloro-5-(pyrrolidin-1-ylmethyl)phenyl]-4-(1H-1,2,4-triazol-3-yl)-1H-pyrazol-1-yl}-5-methylpyridin-2-yl)carbamate]"
5.30 to 6.00,27,"NC(=O)c1cn(-c2ccnc(NCCc3ccc(O)cc3)n2)nc1-c1ccccc1Cl [I-43, 3-(2-chlorophenyl)-1-(2-{[2-(4-hydroxyphenyl)ethyl]amino}pyrimidin-4-yl)-1H-pyrazole-4-carboxamide]"
6.00 to 6.82,92,"Cc1cnc(NC(=O)C2CC2)cc1-n1cc(C(N)=O)c(-c2ccccc2Cl)n1 [I-34, 3-(2-chlorophenyl)-1-{2-[(cyclopropylcarbonyl)amino]-5-methylpyridin-4-yl}-1H-pyrazole-4-carboxamide]"
6.00 to 6.82,56,"COc1ccccc1-c1nn(-c2cc(NC(C)=O)ncc2C)cc1-c1nc[nH]n1 [I-49, N-{4-[3-(2-methoxyphenyl)-4-(1H-1,2,4-triazol-3-yl)-1H-pyrazol-1-yl]-5-methylpyridin-2-yl}acetamide]"
> 7.30,> 99,"CC(=O)Nc1cc(-n2cc(-c3ccn[nH]3)c(-c3ccccc3Cl)n2)ccn1 [I-25, N-{4-[3′-(2-chlorophenyl)-1H,1′H-3,4′-bipyrazol-1′-yl]pyridin-2-yl}acetamide]"
–,> 99,"CC(=O)Nc1cc(-n2cc(-c3nc[nH]n3)c(-c3ccccc3C#N)n2)c(C)cn1 [I-52, N-{4-[3-(2-cyanophenyl)-4-(1H-1,2,4-triazol-3-yl)-1H-pyrazol-1-yl]-5-methylpyridin-2-yl}acetamide]"
> 7.30,> 99,"O=C(Nc1cc(-n2cc(-c3nc[nH]n3)c(-c3ccccc3Cl)n2)ccn1)C1CC1 [I-23, N-{4-[3-(2-chlorophenyl)-4-(1H-1,2,4-triazol-3-yl)-1H-pyrazol-1-yl]pyridin-2-yl}cyclopropanecarboxamide]"
> 7.30,> 99,"Cc1cnc(NC(=O)C2CC2)cc1-n1cc(-c2ncc[nH]2)c(-c2ccccc2Cl)n1 [I-60, N-{4-[3-(2-chlorophenyl)-4-(1H-imidazol-2-yl)-1H-pyrazol-1-yl]-5-methylpyridin-2-yl}cyclopropanecarboxamide]"
6.00 to 6.82,54,"CC(=O)Nc1cc(-n2cc(-c3ncn[nH]3)c(-c3ccnc(Cl)c3)n2)c(C)cn1 [I-106, N-{4-[3-(2-chloropyridin-4-yl)-4-(1H-1,2,4-triazol-5-yl)-1H-pyrazol-1-yl]-5-methylpyridin-2-yl}acetamide]"
> 7.30,> 99,"CCC(=O)Nc1cc(-n2cc(C(N)=O)c(-c3ccccc3Cl)c2)c(C)cn1 [I-28, 4-(2-chlorophenyl)-1-[5-methyl-2-(propionylamino)pyridin-4-yl]-1H-pyrrole-3-carboxamide]"
–,> 99,"CC(=O)Nc1cc(-n2cc(-c3nc[nH]n3)c(-c3ccccc3C(F)(F)F)n2)c(C)cn1 [I-48, N-(5-methyl-4-{4-(1H-1,2,4-triazol-3-yl)-3-[2-(trifluoromethyl)phenyl]-1H-pyrazol-1-yl}pyridin-2-yl)acetamide]"
–,> 99,"COC(=O)Nc1cc(-n2cc(C(N)=O)c(-c3cc(CN4CCCC4)ccc3Cl)c2)c(C)cn1 [I-80, methyl (4-{3-carbamoyl-4-[2-chloro-5-(pyrrolidin-1-ylmethyl)phenyl]-1H-pyrrol-1-yl}-5-methylpyridin-2-yl)carbamate]"
–,85,"COC(=O)Nc1cc(-n2cc(C(N)=O)c(-c3ccccc3Cl)c2)c(Cl)cn1 [I-51, methyl {4-[3-carbamoyl-4-(2-chlorophenyl)-1H-pyrrol-1-yl]-5-chloropyridin-2-yl}carbamate]"
–,> 99,"CCOc1ccc(-c2nn(-c3cc(NC(C)=O)ncc3C)cc2-c2nc[nH]n2)c(Cl)c1 [I-68, N-{4-[3-(2-chloro-4-ethoxyphenyl)-4-(1H-1,2,4-triazol-3-yl)-1H-pyrazol-1-yl]-5-methylpyridin-2-yl}acetamide]"
6.00 to 6.82,64,"CC(=O)Nc1cc(-n2cc(C(N)=O)c(-c3ccccc3S(C)(=O)=O)c2)ccn1 [I-47, 1-(2-acetamidopyridin-4-yl)-4-[2-(methylsulfonyl)phenyl]-1H-pyrrole-3-carboxamide]"
–,> 99,"Cc1cnc(NC(=O)C2CC2)cc1-n1cc(-c2ncc[nH]2)c(-c2ccccc2Cl)c1 [I-82, N-{4-[3-(2-chlorophenyl)-4-(1H-imidazol-2-yl)-1H-pyrrol-1-yl]-5-methylpyridin-2-yl}cyclopropanecarboxamide]"
> 7.30,> 99,"O=C(Nc1cc(-n2cc(-c3nc[nH]n3)c(-c3ccccc3Cl)n2)c(F)cn1)C1CC1 [I-56, N-{4-[3-(2-chlorophenyl)-4-(1H-1,2,4-triazol-3-yl)-1H-pyrazol-1-yl]-5-fluoropyridin-2-yl}cyclopropanecarboxamide]"

# Reference: patent US20130165464A1, “HETEROARYLS AND USES THEREOF” (MILLENNIUM PHARMACEUTICALS, INC., priority 2011, published 2013)
